This test concerns B6C3F1 mice, ip Sarcoma M5076, median survival T/C. Put plainly: NCI In Vivo Anticancer Drug Screen. Data for tumor model Sarcoma M5076 (intraperitoneal) in B6C3F1 mice. Particulars: endpoint: median survival time, schedule: Q04DX004 (ip), higher = longer survival. The procedure: The antitumor activity of compounds was measured in mice bearing transplantable tumors. Survival or tumor size were measured and the results are expressed as the measurement made in the treated group (T) divided by the measurement made in the vehicle treated control group (C). The tumor model used in this assay is Sarcoma M5076 (intraperitoneal) in B6C3F1 mice

The mark [1] stands for this setting: dose: 25.0 mg/kg/injection, vehicle: saline.
Setting [2] is: dose: 50.0 mg/kg/injection, vehicle: saline.
Setting [3] is: dose: 100.0 mg/kg/injection, vehicle: saline.
Where [4] appears, read: dose: 200.0 mg/kg/injection, vehicle: saline.

Several values for one entry are separate records, joined by “and”; a condition that tells them apart may be missing. Equal entries are not always repeated. Inconclusive results and toxic doses are left out.

With `c1ccc2c(c1)oc1cc3c(cc12)nnc1cccn13`, the T/C is 92 % of control (dose: 22.5 mg/kg/injection, vehicle: Klucel (hydroxypropylcellulose) (HPC)); 96 % of control (dose: 45.0 mg/kg/injection, vehicle: Klucel (hydroxypropylcellulose) (HPC)); 94 % of control (dose: 90.0 mg/kg/injection, vehicle: Klucel (hydroxypropylcellulose) (HPC)); 88 % of control (dose: 180.0 mg/kg/injection, vehicle: Klucel (hydroxypropylcellulose) (HPC)); 92 % of control (dose: 360.0 mg/kg/injection, vehicle: Klucel (hydroxypropylcellulose) (HPC)).
Consider `Cc1ncc(CO)c(CO)c1OCC(O)CN1CCN(C(=O)c2ccccc2)CC1` (stereo not given), for which the T/C reads like this: under setting [1], 103 % of control; under setting [2], 103 % of control; under setting [3], 99 % of control.
Regarding `COc1ccccc1N1C(=O)C(=O)C(C(C)=O)C1=O` (stereo not given), the T/C by setting is: (dose: 43.75 mg/kg/injection, vehicle: Klucel (hydroxypropylcellulose) (HPC)) 115 % of control; (dose: 87.5 mg/kg/injection, vehicle: Klucel (hydroxypropylcellulose) (HPC)) 98 % of control; (dose: 175.0 mg/kg/injection, vehicle: Klucel (hydroxypropylcellulose) (HPC)) 100 % of control; (dose: 350.0 mg/kg/injection, vehicle: Klucel (hydroxypropylcellulose) (HPC)) 98 % of control.
Consider `CNC(=O)OCc1nc(SC)n(C)c1COC(=O)NC`, for which the T/C by setting is: under setting [1], 122 % of control; (dose: 25.0 mg/kg/injection, vehicle: suspension in saline) 119 % of control; under setting [2], 119 % of control; (dose: 50.0 mg/kg/injection, vehicle: suspension in saline) 122 % of control; under setting [3], 151 % of control; under setting [4], 184 % of control. Besides, the T/C (dose: 200.0 mg/kg/injection, vehicle: suspension in saline) was 193 % of control.
With `O=C(Nc1cccc(O)c1)C(Cl)=C(Cl)Cl`, the T/C (dose: 6.25 mg/kg/injection, vehicle: other) was 96 % of control and the T/C (dose: 12.5 mg/kg/injection, vehicle: other) is 95 % of control.
Regarding `O=C(O)CC(Sc1ccc(Cl)cc1)C(=O)Nc1ccccc1` (stereo not given), the T/C was 99 % of control (dose: 31.25 mg/kg/injection, vehicle: saline with Tween-80); 102 % of control (dose: 62.5 mg/kg/injection, vehicle: saline with Tween-80); 90 % of control (dose: 125.0 mg/kg/injection, vehicle: saline with Tween-80); 94 % of control (dose: 500.0 mg/kg/injection, vehicle: saline with Tween-80).
Regarding `Cc1c(N)nc([C@H](CC(N)=O)NC[C@H](N)C(N)=O)nc1C(=O)N[C@H](C(=O)N[C@H](C)[C@@H](O)[C@H](C)C(=O)N[C@H](C(=O)NCCc1nc(-c2nc(C(=O)NCCC[S+](C)C)cs2)cs1)[C@@H](C)O)C(OC1OC(CO)C(O)C(O)C1OC1OC(CO)C(O)C(OC(N)=O)C1O)c1cnc[nH]1` (stereo not given in full), the T/C is, setting by setting: (dose: 5.0 mg/kg/injection, vehicle: saline) 94 % of control; (dose: 10.0 mg/kg/injection, vehicle: saline) 94 % of control; (dose: 20.0 mg/kg/injection, vehicle: saline) 109 % of control; (dose: 40.0 mg/kg/injection, vehicle: saline) 106 % of control.
Regarding `COC1OC(COC(C)=O)C(OC(C)=O)C(OC(C)=O)[CH]1[Hg][O]C(C)=O` (stereo not given), the T/C reads like this: (dose: 6.25 mg/kg/injection, vehicle: Klucel (hydroxypropylcellulose) (HPC)) 95 % of control; (dose: 12.5 mg/kg/injection, vehicle: Klucel (hydroxypropylcellulose) (HPC)) 96 % of control.
`CC(NNC(=S)N(C)C1CCCCC1)c1cc2ccccc2cn1` (stereo not given): the T/C runs as follows: under setting [2], 102 % of control; under setting [3], 105 % of control; under setting [4], 111 % of control.
With `O=C[C@@H](CO)O[C@H](C=O)c1c[nH]c(=O)[nH]c1=O`, the T/C runs as follows: (dose: 12.5 mg/kg/injection, vehicle: saline) 111 % of control and 121 % of control; (dose: 18.0 mg/kg/injection, vehicle: saline) 110 % of control; under setting [1], 114 % of control and 123 % of control; (dose: 30.0 mg/kg/injection, vehicle: saline) 118 % of control; under setting [2], 123 % of control; under setting [3], 165 % of control. Moreover, the T/C (dose: 138.8 mg/kg/injection, vehicle: saline) is 153 % of control.
In the case of `C/C(=N\Nc1cc(C)nc2ccc(C)cc12)c1cn(C)n(-c2ccccc2)c1=O`, the T/C (dose: 31.25 mg/kg/injection, vehicle: Klucel (hydroxypropylcellulose) (HPC)) is 86 % of control.
With `NC(Cc1ccc[se]1)C(=O)O` (stereo not given), the T/C was 94 % of control (dose: 12.5 mg/kg/injection, vehicle: saline with Tween-80); 103 % of control (dose: 25.0 mg/kg/injection, vehicle: saline with Tween-80); 109 % of control (dose: 50.0 mg/kg/injection, vehicle: saline with Tween-80).
On to `CC(=O)Nc1ccc(O)c(O)c1`, for which the T/C (dose: 75.0 mg/kg/injection, vehicle: saline with Tween-80) is 107 % of control; the T/C (dose: 150.0 mg/kg/injection, vehicle: saline with Tween-80) was 113 % of control; the T/C (dose: 300.0 mg/kg/injection, vehicle: saline with Tween-80) was 105 % of control; the T/C (dose: 600.0 mg/kg/injection, vehicle: saline with Tween-80) was 101 % of control; the T/C (dose: 1200.0 mg/kg/injection, vehicle: saline with Tween-80) is 104 % of control.
`NCc1cc(O)c(O)c(O)c1`: the T/C by setting is: (dose: 75.0 mg/kg/injection, vehicle: saline) 100 % of control and 106 % of control; (dose: 150.0 mg/kg/injection, vehicle: saline) 100 % of control and 104 % of control; (dose: 300.0 mg/kg/injection, vehicle: saline) 100 % of control and 104 % of control; (dose: 600.0 mg/kg/injection, vehicle: saline) 101 % of control and 118 % of control; (dose: 1200.0 mg/kg/injection, vehicle: saline) 104 % of control.
Consider `CN(C)c1ccc2c(SCC(=O)OCC(=O)[C@@]3(O)CC[C@H]4[C@@H]5CCC6=CC(=O)C=C[C@]6(C)[C@H]5C(=O)C[C@@]43C)c3ccc(N(C)C)cc3nc2c1`, for which the T/C is 101 % of control (dose: 25.0 mg/kg/injection, vehicle: Klucel (hydroxypropylcellulose) (HPC)); 103 % of control (dose: 50.0 mg/kg/injection, vehicle: Klucel (hydroxypropylcellulose) (HPC)); 97 % of control (dose: 100.0 mg/kg/injection, vehicle: Klucel (hydroxypropylcellulose) (HPC)); 90 % of control (dose: 200.0 mg/kg/injection, vehicle: Klucel (hydroxypropylcellulose) (HPC)); 94 % of control (dose: 400.0 mg/kg/injection, vehicle: Klucel (hydroxypropylcellulose) (HPC)).
Turning to `Cn1cnc([N+](=O)[O-])c1SCC(=O)O`, the T/C runs as follows: (dose: 75.0 mg/kg/injection, vehicle: Klucel (hydroxypropylcellulose) (HPC)) 92 % of control; (dose: 150.0 mg/kg/injection, vehicle: Klucel (hydroxypropylcellulose) (HPC)) 101 % of control; (dose: 300.0 mg/kg/injection, vehicle: Klucel (hydroxypropylcellulose) (HPC)) 98 % of control; (dose: 600.0 mg/kg/injection, vehicle: Klucel (hydroxypropylcellulose) (HPC)) 93 % of control; (dose: 1200.0 mg/kg/injection, vehicle: Klucel (hydroxypropylcellulose) (HPC)) 92 % of control.

Values taken from PubChem BioAssay AID292 (DTP/NCI, 2004).
